Key:
human M1 mAChR [1] = target: T1, human M1 mAChR (Homo sapiens, UniProt P11229); conditions: 20 nM [^3H]-GSK1034702
T1 sequence (P11229 1-460): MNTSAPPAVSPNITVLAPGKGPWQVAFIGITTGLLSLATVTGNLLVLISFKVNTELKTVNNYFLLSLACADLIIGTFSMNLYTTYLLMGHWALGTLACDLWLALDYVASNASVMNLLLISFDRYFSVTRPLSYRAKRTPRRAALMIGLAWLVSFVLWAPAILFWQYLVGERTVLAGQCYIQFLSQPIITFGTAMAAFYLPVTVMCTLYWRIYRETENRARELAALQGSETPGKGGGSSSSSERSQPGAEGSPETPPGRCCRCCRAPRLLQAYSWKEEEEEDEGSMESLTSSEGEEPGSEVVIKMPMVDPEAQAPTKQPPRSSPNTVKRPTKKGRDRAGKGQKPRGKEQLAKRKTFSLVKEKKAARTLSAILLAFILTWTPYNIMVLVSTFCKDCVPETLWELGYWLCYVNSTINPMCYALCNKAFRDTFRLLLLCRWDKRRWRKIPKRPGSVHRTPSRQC

[2] = Mouse pharmacokinetics, unbound plasma and brain concentrations; format: in vivo; conditions: mice, 30 minutes after i.p. administration
Protocol: Pharmacokinetic analyses were conducted as previously described ([Witkin et al., 2017]). Compounds were administered via intraperitoneal injection (in 5% glucose) 30 minutes prior to blood collection. Mice were anesthetized with 3% isoflurane (2 l/min), and blood was collected by cardiac puncture of the left ventricle. Blood was immediately transferred to EDTA tubes and centrifuged at 1000g for 10 minutes at 4°C; the supernatant was collected and frozen. Brains from each mouse were also dissected and snap-frozen on dry ice.
Brain samples were homogenized in three volumes of methanol/water [1:4 (v/v)] by weight. A 25-μl aliquot of each study sample, calibration standard, and control sample was added to a 96-well plate and mixed with 180 μl acetonitrile/methanol [1:1 (v/v)] containing internal standard. The samples were subsequently centrifuged, and the resulting supernatants were diluted 12.5-fold with methanol/water [1:1 (v/v)] prior to analyzing 10-μl aliquots by liquid chromatography–tandem mass spectrometry as previously described ([Bradley et al., 2017]).

human mAChR M2 = target: T2, human mAChR M2 (Homo sapiens, UniProt P08172); experiment: [3H]-NMS competition binding, CHO membranes, M2
T2 construct: purchased PerkinElmer; host or cells: CHO
Protocol: (§1) For competition binding experiments at M1, M2, M3, M4, and M5 mAChRs, CHO membranes were purchased from PerkinElmer. All experiments were performed in assay buffer of the following composition: 20 mM HEPES, 100 mM NaCl, and 10 mM MgCl2, pH 7.5, and used 10 µg protein/well in a total assay volume of 1 ml using deep well blocks. […] All assay incubations were initiated by the addition of membrane suspensions and deep well blocks were shaken for 5 minutes to ensure complete mixing. Incubation was then carried out for 2 hours at 21°C. Binding reactions were terminated by rapid filtration through GF/A filters (PerkinElmer) presoaked with 0.5% (w/v) polyethylenimine for 1 hour. Filters were then washed three times with 1 ml ice-cold assay buffer.
(§2) Inhibition binding data were curve-fit using GraphPad Prism 6 to derive the potency (IC50) of the test compound. The equilibrium dissociation constant (KI) of the test compound was then calculated with the Cheng–Prusoff equation: KI = IC50/[1 + ([L]/KD)] using the KD value derived separately from saturation binding studies.

human mAChR M5 = target: T3, human mAChR M5 (Homo sapiens, UniProt P08912); experiment: [3H]-NMS competition binding, CHO membranes, M5
T3 construct: purchased PerkinElmer; host or cells: CHO
Protocol: as §1, §2

human M1 receptor = target: T4, human M1 receptor (Homo sapiens, UniProt P11229); experiment: ERK1/2 phosphorylation, CHO Flp-In human M1 cells; format: cell-based
T4 construct: expressed in transfected cells; host or cells: CHO Flp-In
T4 sequence (P11229 1-460): T1 sequence (P11229 1-460)
Protocol: CHO Flp-In cells stably expressing the human M1 receptor were seeded onto transparent 96-well plates at 20,000 cells/well and grown to confluence. Cells were serum starved overnight prior to the experiment. Prior to the stimulations, cells were washed with 100 μl phosphate-buffered saline and then incubated in serum free F12 medium at 37°C. Cells were stimulated with ligands for 5 minutes at 37°C in a final volume of 200 μl. The stimulations were terminated by rapid aspiration and addition of 50 μl lysis buffer supplemented with blocking reagent per the manufacturer’s instructions, followed by gentle agitation at room temperature for 30 minutes. Subsequently, 16 μl of this lysate was transferred to a 384-well white ProxiPlate (PerkinElmer) and incubated with 4 μl premixed antibody solution for 2 hours at room temperature.
For the analysis, all families of agonist curves at each pathway were globally fitted to the model with the parameters, basal, Em, and n shared between all agonists. For full agonists, the LogKA was constrained to a value of zero, whereas for partial agonists this was directly estimated by the curve fitting procedure; the Log(τ/KA) parameter was estimated as a unique measure of activity for each agonist.

human M1 mAChR [3] = target: T1, human M1 mAChR; experiment: Equilibrium [3H]-NMS binding, CHO Flp-In cell monolayers, wild-type M1; set-up: expressed in transfected cells; host or cells: CHO Flp-In
Protocol: (§3) Prior to the experiment, cells were washed with 100 μl phosphate-buffered saline. […] Binding was terminated by rapid aspiration followed by two washes with 200 μl ice-cold 0.9% NaCl. Bound radioactivity was determined by liquid scintillation (Ultima Gold; PerkinElmer, Boston, MA) counting. Nonspecific binding was determined in the presence of 10 μM atropine.
as §2

M3 mAChR = target: T5, M3 mAChR (Homo sapiens, UniProt P20309); experiment: ERK1/2 phosphorylation, CHO cells, M3; format: cell-based
T5 construct: expressed in transfected cells; host or cells: CHO

human M1 mAChR [4] = target: T1, human M1 mAChR; experiment: IP1 accumulation after receptor alkylation with phenoxybenzamine (functional interaction with ACh)
human M1 mAChR [5] = target: T1, human M1 mAChR; experiment: [3H]-NMS binding interaction studies with BQCA; set-up: expressed in transfected cells; host or cells: CHO Flp-In; conditions: increasing concentrations of BQCA
Protocol: as §3

M2 mAChR = target: T6, M2 mAChR (Homo sapiens, UniProt P08172); experiment: ERK1/2 phosphorylation, CHO cells, M2; format: cell-based
T6 construct: expressed in transfected cells; host or cells: CHO

humans = system: humans; set-up: method as in Nathan et al., 2013; conditions: ref Nathan et al., 2013; cited from earlier work

T3 sequence (P08912 whole entry): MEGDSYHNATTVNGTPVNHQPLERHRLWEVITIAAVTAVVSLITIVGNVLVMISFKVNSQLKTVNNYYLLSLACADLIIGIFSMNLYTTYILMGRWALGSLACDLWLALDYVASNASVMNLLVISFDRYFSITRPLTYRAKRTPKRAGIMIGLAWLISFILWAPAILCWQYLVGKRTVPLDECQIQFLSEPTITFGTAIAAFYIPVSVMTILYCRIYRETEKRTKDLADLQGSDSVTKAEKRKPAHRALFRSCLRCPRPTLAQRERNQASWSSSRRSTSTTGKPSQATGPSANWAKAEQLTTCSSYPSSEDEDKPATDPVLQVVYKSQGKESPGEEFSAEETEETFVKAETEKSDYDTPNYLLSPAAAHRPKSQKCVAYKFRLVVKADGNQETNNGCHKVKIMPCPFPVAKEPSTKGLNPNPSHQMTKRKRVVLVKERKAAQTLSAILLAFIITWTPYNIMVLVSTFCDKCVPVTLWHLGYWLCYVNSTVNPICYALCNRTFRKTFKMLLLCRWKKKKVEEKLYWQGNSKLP
T5 sequence (P20309 whole entry): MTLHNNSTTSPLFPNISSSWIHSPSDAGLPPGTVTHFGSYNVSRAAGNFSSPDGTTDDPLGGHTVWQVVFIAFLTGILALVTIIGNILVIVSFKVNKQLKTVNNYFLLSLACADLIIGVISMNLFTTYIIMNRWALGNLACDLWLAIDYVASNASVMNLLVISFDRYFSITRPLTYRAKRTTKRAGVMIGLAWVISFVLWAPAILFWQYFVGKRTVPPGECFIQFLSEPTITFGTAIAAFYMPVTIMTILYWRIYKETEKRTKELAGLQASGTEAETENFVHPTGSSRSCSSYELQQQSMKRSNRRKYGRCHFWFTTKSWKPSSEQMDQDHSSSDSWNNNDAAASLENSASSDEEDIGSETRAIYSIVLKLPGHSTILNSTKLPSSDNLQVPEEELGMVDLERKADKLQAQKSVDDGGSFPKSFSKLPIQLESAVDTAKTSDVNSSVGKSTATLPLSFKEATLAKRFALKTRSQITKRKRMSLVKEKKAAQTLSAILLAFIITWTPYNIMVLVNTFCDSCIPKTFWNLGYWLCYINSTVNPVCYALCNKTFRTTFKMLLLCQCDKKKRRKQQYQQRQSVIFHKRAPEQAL
T2 sequence (P08172 whole entry): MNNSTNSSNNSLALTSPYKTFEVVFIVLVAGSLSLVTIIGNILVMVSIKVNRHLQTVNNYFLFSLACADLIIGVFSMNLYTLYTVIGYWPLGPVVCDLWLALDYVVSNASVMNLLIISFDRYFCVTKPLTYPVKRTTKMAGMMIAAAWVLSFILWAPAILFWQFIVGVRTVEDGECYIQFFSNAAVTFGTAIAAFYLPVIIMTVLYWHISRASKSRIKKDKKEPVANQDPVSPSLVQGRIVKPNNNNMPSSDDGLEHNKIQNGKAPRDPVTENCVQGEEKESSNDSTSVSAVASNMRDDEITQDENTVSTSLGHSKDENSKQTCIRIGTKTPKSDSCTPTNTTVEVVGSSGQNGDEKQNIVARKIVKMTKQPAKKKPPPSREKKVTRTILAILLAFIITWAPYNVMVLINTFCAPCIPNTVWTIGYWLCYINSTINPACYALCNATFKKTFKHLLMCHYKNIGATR
T6 sequence (P08172 whole entry): as above

Cc1cc(F)c2[nH]c(=O)n(C3CCN(C4CCOCC4)CC3)c2c1 [GSK1034702, 7-fluoro-5-methyl-3-[1-(oxan-4-yl)piperidin-4-yl]-1H-benzimidazol-2-one]
displacement of specific [^3H]-GSK1034702 binding (human M1 mAChR [1]): fully displaced
free brain concentration versus dose [2]: increase linearly with escalating doses
Ki (human mAChR M2): 3980 nM
Ki (human mAChR M5): 6310 nM
ERK1/2 Phosphorylation ΔLog10(τ/KA) (human M1 receptor; normalized to reference ligand ACh): 0.1 ± 0.1
ERK1/2 Phosphorylation Log10(τ/KA) (human M1 receptor; transduction coefficient, wild-type M1 mAChR): 7.2 ± 0.1
Ki (human M1 mAChR [3]): 316 nM
inhibition of [^3H]-NMS binding (human M1 mAChR [3]; [^3H]-NMS 0.5 nM, CHO Flp-In cell monolayers): fully inhibited
functional activity in ERK1/2 phosphorylation (M3 mAChR): devoid of activity
Kb (human M1 mAChR [4]): 631 nM
agonist effect in IP1 accumulation after phenoxybenzamine (human M1 mAChR [4]; cells treated with 3 μM phenoxybenzamine): no agonist effect
modulation by BQCA of the displacement of [^3H]-NMS (human M1 mAChR [5]): not modulated
functional activity in ERK1/2 phosphorylation (M2 mAChR): partial agonist activity
adverse effects (humans): induced gastrointestinal adverse effects
effect on cognitive function (humans): positive effects on cognitive function
